Measurements taken from ChEMBL document CHEMBL1131348, “Pyrazolo[1,5-a]pyrimidine CRF-1 receptor antagonists” (Bioorg Med Chem Lett, 1998).
pKi: −log10 of the molar value.

Target: T1, Corticotropin-releasing factor receptor 1 (Homo sapiens, UniProt P34998)
T1 sequence (P34998 whole entry): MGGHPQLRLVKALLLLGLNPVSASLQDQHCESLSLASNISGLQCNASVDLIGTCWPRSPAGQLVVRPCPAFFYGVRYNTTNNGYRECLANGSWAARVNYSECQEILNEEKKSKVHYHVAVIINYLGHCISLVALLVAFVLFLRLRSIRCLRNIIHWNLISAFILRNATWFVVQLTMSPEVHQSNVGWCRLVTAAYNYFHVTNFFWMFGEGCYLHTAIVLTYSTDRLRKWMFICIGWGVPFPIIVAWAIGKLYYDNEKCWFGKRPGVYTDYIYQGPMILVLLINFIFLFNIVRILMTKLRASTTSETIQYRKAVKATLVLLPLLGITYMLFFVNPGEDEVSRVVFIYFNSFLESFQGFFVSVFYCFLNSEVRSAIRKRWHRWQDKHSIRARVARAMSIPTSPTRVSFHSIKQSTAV
Experiment: Displacement of [125I]0-CRF from human Corticotropin releasing factor receptor 1 expressed in CHO cells
Type: cell-based

SMILES | pKi
CCCCN(CC)c1cc(C)nc2c(-c3ccc(Cl)cc3Cl)c(C)nn12 | 8.30
CCCCNc1cc(C)nc2c(-c3ccc(Cl)cc3Cl)c(C)nn12 | 7.16
CCCCN(CC)c1cc(C)nc2c(-c3ccccc3Cl)c(C)nn12 | 7.82
CCN(CCOC)c1cc(C)nc2c(-c3ccc(Cl)cc3Cl)c(C)nn12 | 7.96
Cc1cc(N2CCCCC2)n2nc(C)c(-c3ccc(Cl)cc3Cl)c2n1 | 7.39
CCCCN(CC)c1cc(C)nc2c(-c3ccc(Cl)cc3Cl)cnn12 | 7.40
CCCC1CCCCN1c1cc(C)nc2c(-c3ccc(Cl)cc3Cl)c(C)nn12 (centres undefined) | 8.19
CCCCN(CC)c1cc(C)nc2c(-c3ccc(Cl)cc3)c(C)nn12 | 7.11
CCCN(CC1CC1)c1cc(C)nc2c(-c3ccc(Cl)cc3Cl)c(C)nn12 | 8.49
CCCCN(CC)c1cc(C)nc2c(-c3ccccc3)c(C)nn12 | 6.29
Cc1cc(N2CCOCC2)n2nc(C)c(-c3ccc(Cl)cc3Cl)c2n1 | 6.51
CCCCN(OC)c1cc(C)nc2c(-c3ccc(Cl)cc3Cl)c(C)nn12 | 6.67
CCCCN(CC)c1cc(C)nc2c(-c3c(Cl)cc(Cl)cc3Cl)c(C)nn12 | 7.03
CCCCN(CC)c1nc(C)nc2c1c(C)cn2-c1c(C)cc(C)cc1C [CP-154526] | 7.25
